Assay results as given in ChEMBL document CHEMBL5230157, “The natural anthraquinone dye purpurin exerts antibacterial activity by perturbing the FtsZ assembly” (Bioorg Med Chem, 2021).
Calls of active or inactive are those of the source. The rule behind the calls is not given here.

Legend:
[1] = target: T1, Cell division protein FtsZ (Escherichia coli K-12) (UniProt P0A9A6); assay: Inhibition of KCl-induced Escherichia coli BL21 FtsZ polymerization at 40 uM incubate for 10 min followed by KCl stimulation by spectrofluorimeter based light-scattering assay
T1 sequence (whole entry): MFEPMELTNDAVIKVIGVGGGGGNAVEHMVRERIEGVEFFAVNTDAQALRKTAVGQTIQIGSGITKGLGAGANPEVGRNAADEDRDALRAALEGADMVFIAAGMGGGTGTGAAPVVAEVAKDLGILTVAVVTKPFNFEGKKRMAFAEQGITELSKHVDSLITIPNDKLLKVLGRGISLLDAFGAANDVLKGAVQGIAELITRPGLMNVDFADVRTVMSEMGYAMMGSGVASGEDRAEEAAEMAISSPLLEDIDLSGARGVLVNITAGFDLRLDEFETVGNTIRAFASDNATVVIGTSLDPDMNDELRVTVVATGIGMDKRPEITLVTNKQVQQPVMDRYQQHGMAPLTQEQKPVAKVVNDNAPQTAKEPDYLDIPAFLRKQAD

[2] = target: T1, Cell division protein FtsZ (Escherichia coli K-12); assay: Inhibition of KCl-induced Escherichia coli BL21 FtsZ polymerization at 80 uM incubate for 10 min followed by KCl stimulation by spectrofluorimeter based light-scattering assay
[3] = target: T1, Cell division protein FtsZ (Escherichia coli K-12); assay: Inhibition of KCl-induced Escherichia coli BL21 FtsZ polymerization assessed as decrease in FtsZ polymer size at 80 uM incubate for 1 hrs by […] staining based fluorescence microscopy
[4] = target: T1, Cell division protein FtsZ (Escherichia coli K-12); assay: Inhibition of KCl-induced Escherichia coli BL21 FtsZ polymerization assessed as decrease in FtsZ polymer thickness at 80 uM incubate for 1 hrs by […] staining based fluorescence microscopy
[5] = target: T1, Cell division protein FtsZ (Escherichia coli K-12); assay: Inhibition of KCl-induced Escherichia coli BL21 FtsZ polymerization assessed as decrease in FtsZ polymer average length at 80 uM incubate for 1 hrs by […] staining based fluorescence microscopy
[6] = target: T1, Cell division protein FtsZ (Escherichia coli K-12); assay: Binding affinity to Escherichia coli BL21 FtsZ assessed as hydrophobic probe ANS-FtsZ complex fluorescence quenching at 2 uM for 30 mins by fluorescence analysis
[7] = target: T1, Cell division protein FtsZ (Escherichia coli K-12); assay: Binding affinity to Escherichia coli BL21 FtsZ assessed as hydrophobic probe ANS-FtsZ complex fluorescence quenching at 5 uM for 30 mins by fluorescence analysis
[8] = target: T1, Cell division protein FtsZ (Escherichia coli K-12); assay: Binding affinity to Escherichia coli BL21 FtsZ assessed as hydrophobic probe ANS-FtsZ complex fluorescence quenching at 10 uM for 30 mins by fluorescence analysis
[9] = target: T1, Cell division protein FtsZ (Escherichia coli K-12); assay: Binding affinity to Escherichia coli BL21 FtsZ assessed as hydrophobic probe ANS-FtsZ complex fluorescence quenching at 20 uM for 30 mins by fluorescence analysis
[10] = target: T1, Cell division protein FtsZ (Escherichia coli K-12); assay: Binding affinity to Escherichia coli BL21 FtsZ assessed as hydrophobic probe ANS-FtsZ complex fluorescence quenching at 40 uM for 30 mins by fluorescence analysis
[11] = target: T1, Cell division protein FtsZ (Escherichia coli K-12); assay: Binding affinity to Escherichia coli BL21 FtsZ assessed as hydrophobic probe ANS-FtsZ complex fluorescence quenching at 80 uM for 30 mins by fluorescence analysis
[12] = target: T2, Cell division protein FtsZ (Escherichia coli K-12, UniProt P0A9A6); assay: Binding affinity to Escherichia coli BL21 FtsZ assessed as dissociation constant of hydrophobic probe ANS-FtsZ complex fluorescence quenching incubated for 30 mins by double reciprocal plot analysis
T2 sequence (P0A9A6 whole entry): T1 sequence (whole entry)

[13] = target: T3, Cell division protein FtsZ (Bacillus subtilis) (UniProt A5Z1V5); assay: Binding affinity to Bacillus subtilis FtsZ assessed as intrinsic tryptophan quenching incubated for 30 mins by fluorescence analysis
T3 sequence (whole entry): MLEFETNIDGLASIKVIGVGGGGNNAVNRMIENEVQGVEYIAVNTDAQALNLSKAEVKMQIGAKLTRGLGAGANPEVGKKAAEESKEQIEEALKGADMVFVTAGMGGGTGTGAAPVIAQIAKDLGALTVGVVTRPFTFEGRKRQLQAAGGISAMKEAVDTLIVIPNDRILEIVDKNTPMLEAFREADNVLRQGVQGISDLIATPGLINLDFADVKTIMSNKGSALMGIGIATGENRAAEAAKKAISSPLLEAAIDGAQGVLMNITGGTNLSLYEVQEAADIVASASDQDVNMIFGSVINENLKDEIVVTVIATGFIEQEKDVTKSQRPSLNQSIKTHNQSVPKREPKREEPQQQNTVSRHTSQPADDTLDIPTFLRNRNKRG

[14] = target: T4, Cell division protein FtsZ (Bacillus subtilis, UniProt A5Z1V5); assay: Binding affinity to Bacillus subtilis FtsZ assessed as dissociation constant of intrinsic tryptophan quenching incubated for 30 mins by double reciprocal plot analysis
T4 sequence (A5Z1V5 whole entry): T3 sequence (whole entry)

[15] = target: T1, Cell division protein FtsZ (Escherichia coli K-12); assay: Inhibition of Escherichia coli BL21 FtsZ assessed as inhibition of KCl-induced GTPase activity at 5 uM preincubated for 10 mins followed by KCl stimulation and measured after 10 mins by malachite green ammonium molybdate dye based spectroscopic analysis; details: time 20.0 min
[16] = target: T1, Cell division protein FtsZ (Escherichia coli K-12); assay: Inhibition of Escherichia coli BL21 FtsZ assessed as inhibition of KCl-induced GTPase activity at 20 uM preincubated for 10 mins followed by KCl stimulation and measured after 10 mins by malachite green ammonium molybdate dye based spectroscopic analysis; details: time 20.0 min
[17] = target: T1, Cell division protein FtsZ (Escherichia coli K-12); assay: Inhibition of Escherichia coli BL21 FtsZ assessed as inhibition of KCl-induced GTPase activity at 80 uM preincubated for 10 mins followed by KCl stimulation and measured after 10 mins by malachite green ammonium molybdate dye based spectroscopic analysis
HeLa [18] = assay: Antiproliferative activity against human HeLa cells assessed as inhibition of cell proliferation incubated for 24 hrs by sulfo-rhodamine B assay; assay type: functional, cell-based
HeLa [19] = assay: Antiproliferative activity against human HeLa cells assessed as inhibition of cell proliferation at 10 uM incubated for 24 hrs by sulforhodamine B assay; assay type: functional; design: scale not given: the % may be the effect or the level left
HeLa [20] = assay: Antiproliferative activity against human HeLa cells assessed as inhibition of cell proliferation at 20 uM incubated for 24 hrs by sulforhodamine B assay; assay type: functional; design: scale not given: the % may be the effect or the level left
HeLa [21] = assay: Antiproliferative activity against human HeLa cells assessed as inhibition of cell proliferation at 50 uM incubated for 24 hrs by sulforhodamine B assay; assay type: functional; design: scale not given: the % may be the effect or the level left
HeLa [22] = assay: Antiproliferative activity against human HeLa cells assessed as inhibition of cell proliferation at 100 uM incubated for 24 hrs by sulforhodamine B assay; assay type: functional; design: scale not given: the % may be the effect or the level left
HeLa [23] = assay: Antiproliferative activity against human HeLa cells assessed as inhibition of cell proliferation at 200 uM incubated for 24 hrs by sulforhodamine B assay; assay type: functional; design: scale not given: the % may be the effect or the level left
HeLa [24] = assay: Antiproliferative activity against human HeLa cells assessed as inhibition of cell proliferation at 300 uM incubated for 24 hrs by sulforhodamine B assay; assay type: functional; design: scale not given: the % may be the effect or the level left
Tubulin (Homo sapiens) [25] = target: T5, Tubulin (Homo sapiens) (UniProt P68371+Q9H4B7+P0DPH7+P68366+Q13509+Q71U36+P04350+Q3ZCM7+P07437+P68363+Q9BQE3+Q6PEY2+Q13885+Q9BVA1+Q9BUF5); assay: Inhibition of tubulin polymerization in human HeLa cells assessed as effect on interphase microtubule network at 80 to 150 uM for 24 hrs by […] staining based fluorescence microscopy; assay type: cell-based; details: dose 80-150 µM
Tubulin (Homo sapiens) [26] = target: T5, Tubulin (Homo sapiens); assay: Inhibition of tubulin polymerization […] assessed as effect on MAP rich- tubulin polymer mass at 20 to 80 uM preincubated for 10 mins followed by GTP addition and measured after 1 hrs by Bradford assay; details: dose 20-80 µM, time 70.0 min

inhibition [1]: 31% | inhibition [2]: 47% | inhibition [3]: Active | inhibition [4]: Active | inhibition [5]: Active | Activity [6]: 14% | Activity [7]: 25% | Activity [8]: 35% | Activity [9]: 45% | Activity [10]: 66% | Activity [11]: 81% | Kd [12]: 11 µM | Activity [13]: Dose-Dependent Effect | Kd [14]: 5.2 µM | inhibition [15]: 11.5% | inhibition [16]: 15.9% | inhibition [17]: 21.9% | IC50 (HeLa [18]): 110 µM | inhibition (Tubulin (Homo sapiens) [25]): inactive | inhibition (Tubulin (Homo sapiens) [26]): inactive
SMILES: O=C1c2ccccc2C(=O)c2c(O)c(O)cc(O)c21 [PURPURIN]
Activity (HeLa [19]): 6% | Activity (HeLa [20]): 14% | Activity (HeLa [21]): 28% | Activity (HeLa [22]): 45% | Activity (HeLa [23]): 72% | Activity (HeLa [24]): 89%
